Data published in patent publication US20150105252A1, “SUBSTITUTED PYRAZOLES AS HERBICIDES” (E I DU PONT DE NEMOURS AND COMPANY, priority 2013, published 2015).

Columns and labels:
barnyardgrass [1] = assay: Test A preemergence; assay type: in vivo, Echinochloa crus-galli
Method in brief: (§1)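 Greenhouse test in loam soil/sand blend; compounds formulated in non-phytotoxic solvent with surfactant, applied as preemergence directed soil spray or postemergence to plants 2–10 cm tall at one- to two-leaf stage. Injury rated visually versus untreated controls after approximately 10 days on a 0 (no effect) to 100 (complete control) scale.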

crabgrass, large [2] = assay: Test A preemergence; assay type: in vivo, Digitaria sanguinalis
Method in brief: as §1

foxtail, giant [3] = assay: Test A preemergence; assay type: in vivo, Setaria faberii
Method in brief: as §1

morningglory [4] = assay: Test A preemergence; assay type: in vivo, Ipomoea spp.
Method in brief: as §1

pigweed [5] = assay: Test A preemergence; assay type: in vivo, Amaranthus retroflexus
Method in brief: as §1

velvetleaf [6] = assay: Test A preemergence; assay type: in vivo, Abutilon theophrasti
Method in brief: as §1

wheat [7] = assay: Test A preemergence; assay type: in vivo, Triticum aestivum
Method in brief: as §1

corn [8] = assay: Test A preemergence; assay type: in vivo, Zea mays
Method in brief: as §1

barnyardgrass [9] = assay: Test A postemergence; assay type: in vivo, Echinochloa crus-galli; settings: Postemergence
Method in brief: as §1

crabgrass, large [10] = assay: Test A postemergence; assay type: in vivo, Digitaria sanguinalis; settings: Postemergence
Method in brief: as §1

foxtail, giant [11] = assay: Test A postemergence; assay type: in vivo, Setaria faberii; settings: Postemergence
Method in brief: as §1

morningglory [12] = assay: Test A postemergence; assay type: in vivo, Ipomoea spp.; settings: Postemergence
Method in brief: as §1

pigweed [13] = assay: Test A postemergence; assay type: in vivo, Amaranthus retroflexus; settings: Postemergence
Method in brief: as §1

velvetleaf [14] = assay: Test A postemergence; assay type: in vivo, Abutilon theophrasti; settings: Postemergence
Method in brief: as §1

wheat [15] = assay: Test A postemergence; assay type: in vivo, Triticum aestivum; settings: Postemergence
Method in brief: as §1

corn [16] = assay: Test A postemergence; assay type: in vivo, Zea mays; settings: Postemergence
Method in brief: as §1

rice [17] = assay: Test C flooded paddy test; assay type: in vivo, Oryza sativa; settings: Flood
From the text: (§2) At time of treatment, test pots were flooded to 3 cm above the soil surface, treated by application of test compounds directly to the paddy water, and then maintained at that water depth for the duration of the test. Treated plants and controls were maintained in a greenhouse for 13 to 15 days, after which time all species were compared to controls and visually evaluated. […] A dash (-) response means no test result.

sedge, umbrella [18] = assay: Test C flooded paddy test; assay type: in vivo, Cyperus difformis; settings: Flood
From the text: as §2

barnyardgrass [19] = assay: Test C flooded paddy test; assay type: in vivo, Echinochloa crus-galli; settings: Flood
From the text: as §2

rice [20] = assay: Test B flood; assay type: in vivo, Oryza sativa; settings: 250 g ai/ha, visual rating on 0 to 100 scale (0 no effect, 100 complete control), 13 to 15 days
Method in brief: (§3)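 Visual ratings (0 = no effect, 100 = complete control) versus untreated controls were taken 13–15 days after treatment of greenhouse plants. Treatment was added to paddy water held at 3 cm depth on 2-leaf-stage seedlings.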

sedge, umbrella [21] = assay: Test B flood; assay type: in vivo, Cyperus difformis; settings: 250 g ai/ha, visual rating on 0 to 100 scale (0 no effect, 100 complete control), 13 to 15 days
Method in brief: as §3

ducksalad = assay: Test B flood; assay type: in vivo, Heteranthera limosa; settings: 250 g ai/ha, visual rating on 0 to 100 scale (0 no effect, 100 complete control), 13 to 15 days
Method in brief: as §3

barnyardgrass [22] = assay: Test B flood; assay type: in vivo, Echinochloa crus-galli; settings: 250 g ai/ha, visual rating on 0 to 100 scale (0 no effect, 100 complete control), 13 to 15 days
Method in brief: as §3

[23] = Preemergence, 1000 g ai/ha, 0 to 100 scale, 0 no effect, 100 complete control
[24] = 1000 g ai/ha, visual rating after approx. 10 days, 0 to 100 scale (0 no effect, 100 complete control)
[25] = 31 g ai/ha, scale 0 to 100 (0 no effect, 100 complete control)
[26] = 62 g ai/ha, scale 0 to 100 (0 no effect, 100 complete control)
[27] = preemergence, 125 g ai/ha, visual injury approx. 10 days after treatment
[28] = preemergence, 500 g ai/ha, visual injury after approx. 10 days, 0 to 100 scale (0 no effect, 100 complete control)
[29] = 125 g ai/ha, 0 to 100 scale, 0 no effect, 100 complete control
[30] = 500 g ai/ha, 0 to 100 scale (0 no effect, 100 complete control)

CCCc1cc(C(=O)NCC(F)(F)F)nn1Cc1cccc(C(F)(F)F)c1 [Compound 31]
Barnyardgrass plant response rating (barnyardgrass [1]; [23]): 50 | Crabgrass, Large plant response rating (crabgrass, large [2]; [23]): 100 | Foxtail, Giant plant response rating (foxtail, giant [3]; [23]): 100 | Morningglory plant response rating (morningglory [4]; [23]): 40 | Pigweed plant response rating (pigweed [5]; [23]): 90 | Velvetleaf plant response rating (velvetleaf [6]; [23]): 50 | Wheat plant response rating (wheat [7]; [23]): 10 | Corn plant response rating (corn [8]; [23]): 10 | Barnyardgrass plant response rating (barnyardgrass [9]; [24]): 60 | Crabgrass, Large plant response rating (crabgrass, large [10]; [24]): 60 | Foxtail, Giant plant response rating (foxtail, giant [11]; [24]): 70 | Morningglory plant response rating (morningglory [12]; [24]): 100 | Pigweed plant response rating (pigweed [13]; [24]): 100 | Velvetleaf plant response rating (velvetleaf [14]; [24]): 100 | Wheat plant response rating (wheat [15]; [24]): 30 | Corn plant response rating (corn [16]; [24]): 20 | Plant response rating, Rice (rice [17]; [25]): 0 | Plant response rating, Rice (rice [17]; [26]): 0 | Plant response rating, Rice (rice [17]; 125 g ai/ha, scale 0 to 100): 0 | Plant response rating, Rice (rice [17]; 250 g ai/ha, scale 0 to 100): 15 | Plant response rating, Sedge, Umbrella (sedge, umbrella [18]; [25]): 30 | Plant response rating, Sedge, Umbrella (sedge, umbrella [18]; [26]): 70 | Plant response rating, Sedge, Umbrella (sedge, umbrella [18]; 125 g ai/ha, scale 0 to 100): 85 | Plant response rating, Sedge, Umbrella (sedge, umbrella [18]; 250 g ai/ha, scale 0 to 100): 85 | Plant response rating, Barnyardgrass (barnyardgrass [19]; [25]): 0 | Plant response rating, Barnyardgrass (barnyardgrass [19]; [26]): 0 | Plant response rating, Barnyardgrass (barnyardgrass [19]; 125 g ai/ha, scale 0 to 100): 0 | Plant response rating, Barnyardgrass (barnyardgrass [19]; 250 g ai/ha, scale 0 to 100): 20

CCc1cc(C(=O)NCC(F)(F)F)nn1Oc1cccc(OC(F)(F)F)c1 [Compound 221]
Barnyardgrass plant response rating (0 to 100 scale, 0 is no effect, 100 is complete control) (barnyardgrass [1]; [27]): 0 | Barnyardgrass plant response rating (barnyardgrass [1]; [28]): 10 | Crabgrass, Large plant response rating (0 to 100 scale) (crabgrass, large [2]; [27]): 10 | Crabgrass, Large plant response rating (crabgrass, large [2]; [28]): 90 | Foxtail, Giant plant response rating (0 to 100 scale) (foxtail, giant [3]; [27]): 0 | Foxtail, Giant plant response rating (foxtail, giant [3]; [28]): 40 | Morningglory plant response rating (0 to 100 scale) (morningglory [4]; [27]): 0 | Pigweed plant response rating (0 to 100 scale) (pigweed [5]; [27]): 0 | Velvetleaf plant response rating (0 to 100 scale) (velvetleaf [6]; [27]): 0 | Wheat plant response rating (0 to 100 scale) (wheat [7]; [27]): 0 | Corn plant response rating (0 to 100 scale) (corn [8]; [27]): 0 | Corn plant response rating (corn [8]; [28]): 0 | Barnyardgrass plant response rating (barnyardgrass [9]; [29]): 10 | Barnyardgrass plant response rating (barnyardgrass [9]; [30]): 10 | Crabgrass, Large plant response rating (crabgrass, large [10]; [29]): 10 | Crabgrass, Large plant response rating (crabgrass, large [10]; [30]): 30 | Foxtail, Giant plant response rating (foxtail, giant [11]; [29]): 10 | Foxtail, Giant plant response rating (foxtail, giant [11]; [30]): 30 | Morningglory plant response rating (morningglory [12]; [29]): 30 | Morningglory plant response rating (morningglory [12]; [30]): 80 | Pigweed plant response rating (pigweed [13]; [29]): 20 | Pigweed plant response rating (pigweed [13]; [30]): 60 | Velvetleaf plant response rating (velvetleaf [14]; [29]): 0 | Velvetleaf plant response rating (velvetleaf [14]; [30]): 20 | Wheat plant response rating (wheat [15]; [29]): 0 | Wheat plant response rating (wheat [15]; [30]): 10 | Corn plant response rating (corn [16]; [29]): 10 | Corn plant response rating (corn [16]; [30]): 20 | Plant response rating, Rice (rice [20]): 0 | Plant response rating, Sedge, Umbrella (sedge, umbrella [21]): 0 | Plant response rating, Ducksalad (ducksalad): 0 | Plant response rating, Barnyardgrass (barnyardgrass [22]): 0
